Experimental data reported in patent US12491184B2 (Veradermics, Incorporated, priority 2022, dated 2025).

Assays:
[1] = 2.5 mg, 5 mg, or 10 mg oral; cited from earlier work
[2] = system: mice; details: dietary, up to 2 years, 63 mg/kg/day; cited from earlier work
[3] = system: male adults with AGA; details: cited from earlier work
[4] = system: patient with androgenetic alopecia; details: 1.25 mg QID
[5] = system: animal; details: long term animal studies; cited from earlier work
[6] = system: dogs; details: short-term administration 0.5 mg to 10 mg/kg/day; cited from earlier work
[7] = system: patients; details: cited from earlier work
[8] = oral; cited from earlier work

Nc1cc(N2CCCCC2)nc(N)[n+]1[O-] [minoxidil]
differences in systolic and diastolic blood pressure (time effects within treatments) [1]: less than 10% | effect on blood pressure in normotensive subjects [1]: little effect on blood pressure | incidence of hepatic nodules in males [2]: increased incidence of hepatic nodules | adverse cardiovascular outcomes ([3]; 5 mg oral at bedtime, 24 weeks): No adverse cardiovascular outcomes | change in mean heart rate ([3]; 5 mg oral at bedtime, 24 weeks): no overall change in mean heart rate | laboratory variables before versus after treatment ([3]; 5 mg oral at bedtime, 24 weeks): no differences | subjects developing tachycardia ([3]; at the follow-up visit): 1 subject | unwanted hair growth or other adverse events [4]: No unwanted hair growth or other adverse events, including any cardiac effects | cardiac findings [5]: cardiac hypertrophy, cardiac dilation, and serosanguineous pericardial fluid | cardiac findings [6]: various cardiac lesions | emergence of hypertrichosis signs after starting treatment ([7]; human, in vivo): 3-6 weeks | spontaneous reversal of hypertrichosis after cessation of therapy ([7]; human, in vivo): 1-6 months | occurrence of hypertrichosis ([7]; treated patients): most patients | absorbed from the gastrointestinal tract [8]: > 90%
